How the values were obtained:
[1] = target: Mitogen-activated protein kinase 10 (Homo sapiens, UniProt P53779); experiment: Kinase Assay; details: 37 °C
Method: (§1) The p38alpha reaction was carried out by using kinase (12ng per well), ATP (100uM) and incubated for 60 min at 37 C. For the JNK3 assay, kinase (10ng per well), ATP (1uM) and 45 min of incubation time at 37 C were used.

[2] = target: Mitogen-activated protein kinase 14 (Homo sapiens, UniProt Q16539); experiment: Kinase Assay; details: 37 °C
Method: as §1

Chain of Mitogen-activated protein kinase 14 (Q16539 whole entry): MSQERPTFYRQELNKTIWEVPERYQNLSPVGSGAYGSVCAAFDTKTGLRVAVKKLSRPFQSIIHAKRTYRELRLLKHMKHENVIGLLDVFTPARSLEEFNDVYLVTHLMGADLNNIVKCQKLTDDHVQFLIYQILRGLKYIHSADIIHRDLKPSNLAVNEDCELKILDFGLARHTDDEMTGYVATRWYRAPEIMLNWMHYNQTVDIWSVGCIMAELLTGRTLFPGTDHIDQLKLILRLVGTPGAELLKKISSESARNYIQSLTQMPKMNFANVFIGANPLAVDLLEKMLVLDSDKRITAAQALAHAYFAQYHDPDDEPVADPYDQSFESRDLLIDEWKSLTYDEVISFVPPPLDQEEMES
Chain of Mitogen-activated protein kinase 10 (P53779 whole entry): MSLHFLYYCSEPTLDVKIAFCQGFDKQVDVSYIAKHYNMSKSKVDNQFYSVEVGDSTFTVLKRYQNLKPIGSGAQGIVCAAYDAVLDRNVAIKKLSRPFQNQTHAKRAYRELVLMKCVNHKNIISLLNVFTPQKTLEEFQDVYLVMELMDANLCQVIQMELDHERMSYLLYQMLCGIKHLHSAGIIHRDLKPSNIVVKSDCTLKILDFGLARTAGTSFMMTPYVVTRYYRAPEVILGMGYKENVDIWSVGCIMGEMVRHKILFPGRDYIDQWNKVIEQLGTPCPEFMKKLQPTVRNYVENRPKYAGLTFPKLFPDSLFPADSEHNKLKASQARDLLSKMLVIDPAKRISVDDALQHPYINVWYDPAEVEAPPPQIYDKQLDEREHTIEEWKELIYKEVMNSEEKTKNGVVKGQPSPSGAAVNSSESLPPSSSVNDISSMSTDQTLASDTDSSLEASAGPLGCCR

Structure (SMILES)	IC50 [1] [µM]	IC50 [2] [µM]
O=c1c(O)c(-c2cc(O)c(O)c(O)c2)oc2cc(O)cc(O)c12	2.24	1.64
COc1cc(-c2oc3cc(O)cc(O)c3c(=O)c2O)ccc1O	6.3	20.1
COc1c(O)cc2oc(-c3ccc(O)c(O)c3)cc(=O)c2c1O	15.9	22.2
Oc1cc(O)c2c(c1)O[C@H](c1ccc(O)c(O)c1)[C@H](O)C2	89.5	67.6
O=c1cc(-c2ccc(O)c(O)c2)oc2cc(O[C@@H]3O[C@H](CO)[C@@H](O)[C@H](O)[C@H]3O)cc(O)c12	2.45	87.1
O=c1c(O)c(-c2ccc(O)cc2)oc2cc(O)cc(O)c12	19.1	18.4
C[C@@H]1O[C@@H](Oc2c(-c3ccc(O)c(O)c3)oc3cc(O)cc(=O)c-3c2O)[C@H](O)[C@H](O)[C@H]1O	20.2	28.1
O=c1c(O)c(-c2ccc(O)cc2O)oc2cc(O)cc(O)c12 [2-(2,4-dihydroxyphenyl)-3,5,7-trihydroxychromen-4-one]	26.8	11.4
O=c1c(O)c(-c2ccc(O)c(O)c2)oc2cc(O)cc(O)c12 [2-(3,4-dihydroxyphenyl)-3,5,7-trihydroxy-chromone;hydrate]	2.31	3.45
O=c1c(O)c(-c2ccc(O)c(O)c2)oc2cc(O)ccc12 [2-(3,4-dihydroxyphenyl)-3,7-dihydroxy-chromen-4-one]	2.6	2.7
O=c1cc(-c2ccc(O)c(O)c2)oc2cc(O)cc(O)c12 [2-(3,4-dihydroxyphenyl)-5,7-dihydroxy-4H-chromen-4-one]	2.3	18
COc1cc(O)c2c(=O)c(OC)c(-c3ccc(O)c(O)c3)oc2c1 [3',4',5-trihydroxy-3,7-dimethoxyflavone]	7.7	12.3
C[C@@H]1O[C@@H](OC[C@H]2O[C@@H](Oc3c(-c4ccc(O)c(O)c4)oc4cc(O)cc(O)c4c3=O)[C@H](O)[C@@H](O)[C@@H]2O)[C@H](O)[C@H](O)[C@H]1O [3-Rhamnoglucosylquercetin]		65.9
COc1ccc(-c2cc(=O)c3c(O)c(OC)c(O)cc3o2)cc1 [4,5-Dihydroxy-6-methoxy-2-(4-methoxy-phenyl)-chromen-7-one]		32.4
COc1c(O)cc2oc(-c3ccc(O)cc3)cc(=O)c2c1O [5,7-dihydroxy-2-(4-hydroxyphenyl)-6-methoxy-4H-chromen-4-one]	34.8	18.6
COc1ccc(-c2cc(=O)c3c(O)cc(O)cc3o2)cc1 [5,7-dihydroxy-2-(4-methoxyphenyl)-4H-chromen-4-one]	5.78	50

Structure (SMILES)	IC50 [1] [µM]	IC50 [2] [µM]
O=c1cc(-c2ccccc2)oc2cc(O)cc(O)c12 [5,7-dihydroxy-2-phenyl-4H-chromen-4-one]	11.8	39.9
COc1ccc(-c2cc(=O)c3c(O)cc(OC)cc3o2)cc1 [5-hydroxy-7-methoxy-2-(4-methoxyphenyl)-4H-chromen-4-one]		27.8
COc1c(O)cc2oc(-c3ccc(O)cc3)c(O)c(=O)c2c1O [6-methoxy kaempferol]	22.4	17.2
COc1ccc([C@@H]2CC(=O)c3c(O)cc(O)cc3O2)cc1O [(2S)-5,7-dihydroxy-2-(3-hydroxy-4-methoxyphenyl)-3,4-dihydro-2H-1-benzopyran-4-one]		54.6
Oc1cc(O)c2c(c1)O[C@H](c1cc(O)c(O)c(O)c1)[C@@H](O)C2 [(+)-gallocatechin]	5.3	3.53
COc1cc(-c2cc(=O)c3c(O)c(OC)c(O)cc3o2)ccc1O [Jaceosidin]	19.1	18.9
COc1ccc(-c2oc3cc(O)cc(O)c3c(=O)c2O)cc1 [Kaempferide]	52.5	32.9
COc1cc(O)c2c(=O)c(O)c(-c3ccc(OC)c(O)c3)oc2c1 [Kaempferol-7,4'-dimethylether]	55.4	3.98
O=c1cc(-c2ccc(O)c(O)c2)oc2c([C@@H]3O[C@H](CO)[C@@H](O)[C@H](O)[C@H]3O)c(O)cc(O)c12 [Luteolin 8-C-glucoside]	38.2	55.7
COc1cc(O)c2c(=O)cc(-c3ccc(OC)c(OC)c3)oc2c1 [Luteolin-7,3',4'-trimethylether]		33.2
O=c1cc(-c2ccc(O)cc2)oc2cc(O)cc(O)c12 [Naringenin, 18]	2.2	14.3
COc1ccc(-c2cc(=O)c3c(O)c(OC)c(O)c(OC)c3o2)cc1 [Nevadensin]	16.3	23.9
COc1c(O)cc2oc(-c3ccc(O)c(O)c3)c(O)c(=O)c2c1O [Patuletin]	60.9	16.3
O=c1c(-c2ccc(O)cc2)coc2cc(O)cc(O)c12 [Prunetol]		61.4
O=c1cc(O)cc2oc(-c3ccc(O)c(O)c3)c(O[C@@H]3O[C@H](CO)[C@@H](O)[C@H](O)[C@H]3O)c(O)c1-2 [Quercetin 3-O-beta-D-glucoside]	21.7	51.3
COc1cc(O)c2c(=O)cc(-c3ccc(O)c(OC)c3)oc2c1 [Velutin]	7.8	52.5
